Test system: Trichoderma harzianum
Assay: In vitro antifungal activity assay in 96-well microtiter plates (mould growth reduction, Colby synergy)
Type: cell-based
Protocol: The following compositions are tested: • Control (no active ingredient), • 1.25 ppm natamycin (DSM Food Specialties, Delft, The Netherlands), • 0.5, 1.0, 1.25 or 1.5 ppm thiabendazole, • 1.25 ppm natamycin+0.5 ppm thiabendazole, • 1.25 ppm natamycin+1.0 ppm thiabendazole, • 1.25 ppm natamycin+1.25 ppm thiabendazole, • 1.25 ppm natamycin+1.5 ppm thiabendazole. […] Subsequently, 100 μl of a Trichoderma harzianum suspension prepared in PCB medium is used to inoculate each well with 5.0×10^3 spores/ml. […] After incubation of the microtiter plates for 3, 5, 10 and 17 days at 25° C., the in vitro antifungal activity (%) of the individual active ingredients was assessed by calculating the reduction in mould growth observed in the presence of the active ingredient in comparison to the mould growth observed in the absence of the active ingredient. The expected antifungal activity (E in %) of the active ingredient combination was calculated according to the Colby equation (Colby, 1967): E=X+Y−[(X·Y)/100] wherein X and Y are the observed antifungal activities (in %) of the individual active ingredients X and Y, respectively. If the observed antifungal activity (O in %) of the combination exceeds the expected antifungal activity (E in %) of the combination and the resulting synergy factor O/E is thus >1.0, the combined application of the active ingredients leads to a synergistic antifungal effect.

Measured: Observed antifungal activity O (%)

C[C@@H]1C/C=C/C=C/C=C/C=C/[C@H](O[C@@H]2O[C@H](C)[C@@H](O)[C@H](N)[C@@H]2O)C[C@@H]2O[C@](O)(C[C@@H](O)C[C@H]3O[C@@H]3/C=C/C(=O)O1)C[C@H](O)[C@H]2C(=O)O [Natamycin, natamycin]
0%: Natamycin 1.25 ppm, 3 days incubation at 25° C. | Natamycin 1.25 ppm, 5 days incubation at 25° C. | Natamycin 1.25 ppm, 10 days incubation at 25° C. | Natamycin 1.25 ppm, 17 days incubation at 25° C.

c1ccc2[nH]c(-c3cscn3)nc2c1 [Thiabendazole, 4-(1H-1,3-benzodiazol-2-yl)-1,3-thiazole]
0%: Thiabendazole 0.5 ppm, 3 days incubation at 25° C. | Thiabendazole 1.0 ppm, 5 days incubation at 25° C. | Thiabendazole 1.25 ppm, 5 days incubation at 25° C. | Thiabendazole 1.25 ppm, 10 days incubation at 25° C. | Thiabendazole 1.5 ppm, 10 days incubation at 25° C. | Thiabendazole 1.5 ppm, 17 days incubation at 25° C.

From patent US20150150159A1, “METHOD FOR CONTROLLING FUNGAL DISEASES IN MUSHROOM PRODUCTION” (DSM IP ASSETS B.V., priority 2012, published 2015)
